# From patent US20230313140A1, “METHOD FOR PREPARING T CELLS FOR ADOPTIVE T CELL THERAPY” (St. Jude Children's Research Hospital, Inc., priority 2022, published 2023)
# Legend:
# [1] = tested on: p-eIF4GI; experiment: Imaging of polarization of p-eIF4GI in activated, undivided CD8+ T cells; conditions: Dynarrestin 25 μM, Ciliobrevin D 50 μM
# Protocol: (§1) Murine CD8^+ T Lymphocytes. For CD8^+ T cell stimulation, splenocytes obtained from wild-type animals were enriched for antigen presenting cells (APCs) using CD11c MicroBeads (Miltenyi Biotec) and pulsed with 5 nM of [sequence] peptide (SEQ ID NO:1; AnaSpec Inc.) for 1 hour at 37° C. CD8^+ T cells were isolated from lymph nodes using the Dynabeads Untouched Mouse CD8 Cells Kit (Invitrogen) and overlain onto the peptide-pulsed APCs. Alternatively, CD8^+ T cells were stimulated on plate-bound anti-CD3ε (1 μg/ml, Bio X Cell), anti-CD28 (1 μg/ml, Bio X Cell), and recombinant human ICAM (0.5 μg/ml) produced in insect cells (Huppa et al. (2010) Nature 463:963-967); or by incubation with PMA (10 ng/ml, MedChemExpress) and Ionomycin (1 μM, MedChemExpress). Whenever assessment of cell division was required, CD8^+ T cells were labeled with a fluorescent dye sold under the tradename CELLTRACE® Violet (CTV) Cell Proliferation Kit (Invitrogen) at 5 μM per 1×10^7 cells for 10 minutes at 37° C. […]
# (§2) The distribution of proteins in undivided cells was analyzed using Imaris 9.5 software (Oxford Instruments).
# [2] = tested on: ribosomal protein S6; experiment: General TORC1 activity measured by phosphorylation of ribosomal protein S6; type: cell-based, mouse; conditions: activated, undivided cells treated with dynein inhibitors
# From the text: Murine CD8^+ T Lymphocytes. […] Immunofluorescence Staining and Imaging.
# [3] = tested on: TORC1; experiment: Imaging of polarization of TORC1 activity (phospho-mTOR) in activated, undivided CD8+ T cells; conditions: Dynarrestin 25 μM, Ciliobrevin D 50 μM
# Protocol: as §1, §2
# [4] = tested on: cytosolic c-Myc; experiment: Imaging of polarization of cytosolic c-Myc in activated, undivided CD8+ T cells; conditions: Dynarrestin 25 μM, Ciliobrevin D 50 μM
# Protocol: as §1, §2
# [5] = tested on: c-Myc association with RPL26 and S6; experiment: STORM analysis of c-Myc translating polysomes; type: cell-based, mouse; conditions: brief treatment, 91 μM
# Protocol: Murine CD8^+ T Lymphocytes. […] Stochastic Optical Reconstruction Microscopy (STORM). […] PFA was added to the culture at a final concentration of 4% (v/v), the cell suspension was transferred into […], and fixation continued for 10 minutes at RT. During all sample preparation, cells were pelleted for 3 minutes at 2000 rpm between each buffer. […] Reactive groups were quenched in 20 mM glycine, and non-specific antibody binding was blocked in TBS+2% BSA. […] Cells were washed with TBS and incubated with the following secondary antibodies for 1 hour at RT: CF488-labeled donkey anti-rat (1:1000, Biotium), CF568-labeled donkey anti-Goat (1:1000, Biotium), and AF647-labeled donkey anti-rabbit (1:1000, Jackson ImmunoResearch). Following two washes with TBS, cells were post-fixed in 1% (v/v) PFA for 5 minutes at RT, pelleted and resuspended in 20 μl cell culture matrix sold under […] drop of the cell suspension was placed into a cryomold, overlaid with Tissue Freezing Medium (Fisher Scientific Company) and snap frozen on dry ice. […] cryosections were placed on poly-L-lysine coated #1.5 18-mm coverslips (Electron Microscopy Sciences) and affixed to 35-mm dishes (Mattek) using epoxy resin. […] At least 25 cells from two independent experiments were analyzed. […]
# [6] = tested on: Sirt1; experiment: Immunofluorescence imaging of Sirt1 distribution between dividing sister cells; conditions: silvestrol 200 nM or Hippuristanol 500 nM, last hour of activation
# Protocol: (§3) Murine CD8^+ T Lymphocytes. For CD8^+ T cell stimulation, splenocytes obtained from wild-type animals were enriched for antigen presenting cells (APCs) using CD11c MicroBeads (Miltenyi Biotec) and pulsed with 5 nM of [sequence] peptide (SEQ ID NO:1; AnaSpec Inc.) for 1 hour at 37° C. CD8^+ T cells were isolated from lymph nodes using the Dynabeads Untouched Mouse CD8 Cells Kit (Invitrogen) and overlain onto the peptide-pulsed APCs. […] Whenever assessment of cell division was required, CD8^+ T cells were labeled with a fluorescent dye sold under the tradename CELLTRACE® Violet (CTV) Cell Proliferation Kit (Invitrogen) at 5 μM per 1×10^7 cells for 10 minutes at 37° C. For in vivo stimulation, CTV-labeled CD8^+ T cells were transferred by tail vein injection of wild-type recipients. Twenty-four hours after transfer, recipients were immunized by subcutaneous injection of 50 μg of [sequence] peptide (SEQ ID NO:1) into the neck region. Donor cells were obtained from axillary and brachial lymph nodes 8 hours after immunization. CD8^+ T cells were cultured in RPMI 1640 (Gibco) supplemented with 10% (v/v) heat-inactivated fetal bovine serum (FBS), lx MEM non-essential amino acids (Gibco), 1 mM Sodium pyruvate (Gibco), 2 mM L-glutamine (Gibco), 55 μM 2-mercaptoethanol (Gibco), 50 U/ml penicillin and 50 μg/ml streptomycin (Corning) at 37° C. in 5% CO2. […]
# [7] = tested on: first-division c-Myc^high CD8+ T cells; experiment: Adoptive transfer and in vivo influenza infection and challenge, donor cell frequency; parameters: species or system mouse; conditions: c-Myc^high cells treated 2 hours with 200 nM after sorting, transferred into recipients; A/X-31-OVA day 0, challenge day 30; spleen
# [8] = tested on: c-Myc; experiment: Immunofluorescence imaging of c-Myc distribution in first-division sister cells; conditions: treatment immediately prior to the first division (last hour of activation); silvestrol 200 nM, Hippuristanol 500 nM
# Protocol: as §3
# [9] = tested on: GFP-c-Myc; type: cell-based, mouse; conditions: sorted first-division cells treated for 2 hours, 200 nM
# [10] = tested on: c-Myc bound to chromatin at c-Myc binding sites; experiment: CUT&RUN ChIP-seq of c-Myc bound to chromatin in first-division CD8+ T cells; type: cell-based, mouse; conditions: brief treatment of activated CD8+ T cells; 200 nM, 2 hours; chromatin immunoprecipitation
# Protocol: CHIP-Sequencing. First-division CD8^+ T cells were sorted into medium with or without 200 nM silvestrol and cultured for additional 2 hours. CUT&RUN ChIP-seq experiments were performed as previously described (Meers et al. (2019) Elife 8) with slight modifications. […] Libraries were quantified using Qubit and size distribution was determined by Agilent 4200 TapeStation analysis before 15 million paired-end sequencing was performed.
# Analysis for CHIP-seq Data. Paired-end sequencing reads were trimmed with Trim Galore (version 0.5.0) with default parameters. Reads were aligned to the reference mouse mm10 assembly using Bowtie 2 (version 2.3.5.1) (Langmead & Salzberg (2012) Nat. Methods 9:357-359) with settings—end-to-end—very-sensitive—nomixed—no-discordant-q—phred33-I 10-X 700. The resulting alignments, recorded in BAM file, were sorted, indexed, and marked for duplicates with Picard MarkDuplicate function (version 2.19.0, Broad Institute). […] C-Myc occupancy was normalized by scaling to 1 million mapped reads using BEDTools (version 2.27.1) (Quinlan & Hall (2010) Bioinformatics 26:841-842) and bedGraphToBigWig (version 377) (Kent et al. (2010) Bioinformatics 26:2204-2207) and visualized as heatmaps using deepTools plotHeatmap (version 3.2.1) (Ramirez et al. (2016) Nucl. Acids Res. 44:W160-165).
Structure (SMILES),polarization of p-eIF4GI [1],"TORC1 activity in general, phosphorylation of ribosomal protein S6 [2]",polarization of TORC1 [3],polarization of cytosolic c-Myc [4],Sirt1 protein distribution between dividing sister cells [6],other results
CCOC(=O)c1sc(Nc2ccc(F)cc2F)nc1-c1ccc(N(CC)CC)cc1 [Dynarrestin],abrogated the polarization,remained unaffected,abrogated the polarization,abrogated the polarization,,
COc1ccc(C[C@H](N)C(=O)N[C@H]2[C@@H](O)[C@H](n3cnc4c(N(C)C)ncnc43)O[C@@H]2CO)cc1 [puromycin],,,,,,association of c-Myc with RPL26 and S6 [5]: significantly reduced
C[C@H]1C[C@@]2(O[C@H]3C[C@H]4[C@@H]5CC[C@H]6C[C@H](O)CC[C@]6(C)[C@H]5[C@@H](O)C[C@]4(C)[C@H]3[C@@]2(C)O)OC1(C)C [Hippuristanol],,,,,unaffected,
N#CC(=C(O)c1ccc(Cl)cc1Cl)c1nc2cc(Cl)ccc2c(=O)[nH]1 [Ciliobrevin D],abrogated the polarization,remained unaffected,abrogated the polarization,abrogated the polarization,,
COC(=O)[C@H]1[C@@H](O)[C@@]2(O)c3c(OC)cc(O[C@@H]4O[C@@H]([C@H](O)CO)CO[C@H]4OC)cc3O[C@@]2(c2ccc(OC)cc2)[C@@H]1c1ccccc1 [silvestrol],,,,,unaffected,"frequency of donor cells on day 9 after A/PR/8-OVA challenge (FIG. 2) [7]: detected at numbers comparable to those found for sorted c-Myc^low cells; c-Myc asymmetry in first-division sister cells [8]: rapid equilibration of c-Myc levels; c-Myc levels in c-Myc^high cells (GFP-c-Myc MFI, FIG. 1) [9]: reduce c-Myc levels in c-Myc^high cells to those observed in c-Myc^low cells; c-Myc bound to chromatin at c-Myc binding sites [10]: greatly reduced"
